pIC50: −log10 of the molar value. Values joined by “and” are separate entries in the source; they are usually repeats but may differ in a detail not shown here. Identical values can stand only once. Like-named read-outs stand apart in the source and are kept apart here. Numbered stars: 1 amine (or outer) side, 2 acyl side, 3 side chain; on linkers, the order of the positions; unused ones are H or OH. Square brackets hold non-standard residues; d marks the D form. Peptide text beside a SMILES is read from it. ξ: configuration not given here. X1 = CN(C(Cc1cn(Cc2ccc(Br)cc2)c2ccccc12)C(=O)[*:2])[*:1]; ξAla(CF3) = NC(CC(F)(F)F)C(=O)O; X2 = N#CCCC(O[*:1])C(=O)[*:2]; NMeL = CN[CH](CC(C)C)C(=O)O; NMeA = CN[CH](C)C(=O)O
What was measured:
[1] = tested on: human peripheral blood mononuclear cells (PBMCs); test: Cytokine secretion assay, stimulated human PBMCs (MSD U-PLEX); assay type: cell-based
[2] = tested on: SARS-CoV-2; assay type: cell-based; conditions: for infectious virus particle production: 48 h
[3] = tested on: human PBMCs; conditions: concentrations up to 20 µM; PBMCs and splenocytes
[4] = tested on: mouse splenocytes; conditions: 24 h treatment
[5] = tested on: SARS-CoV-2; conditions: Vero cells
[6] = tested on: T-cell acute lymphoblastic leukemia cells; conditions: in vitro; cited from earlier work
[7] = molecular target: Sec61α Q127A (Canis lupus familiaris, UniProt P38377, Q127A); test: Luciferase reporter assay in HEK293 cells expressing Sec61α Q127A; set-up: remaining activity: dose or concentration left out as unconfirmed; conditions: HEK293, 24 h, read-out: luciferase reporter activity (% of no-drug control), Q127A
Description: (§1) Data are mean values ± s.d. from n = 2 independent experiments.
(§2) HEK293T cells (0.3 × 10^6) were seeded per well of a six-well plate and incubated at 37 °C in 5% CO2 for 24 h to adhere. Each of the two wells was transfected with 1 µg of plasmid encoding a luciferase with the signal peptide of either VCAM1 or pPL using PEI in a 5:1 ratio, after which cells were returned to the incubator for a further 24 h. Transfected cells were then resuspended following trypsinization, cell count estimated using a TC20 Automated Cell Counter (BioRad) and diluted to seed a 96-well flat-bottom plate with 1.6 × 10^4 cells per well. […] Cells were then incubated for a further 24 h, after which the luciferase-containing media were transferred to a clean 96-well plate and stored at −20 °C. Luciferase activity of the media was estimated using a Gaussia-GLOW Juice Luciferase Assay kit from PJK Biotech GmbH as per the manufacturer’s instructions. Luminescence was measured using an EnSpire Multimode plate reader (PerkinElmer). Background luminescence from media placed in a well with neither cells nor drug was subtracted from all values, and measurements were calculated as a percentage of luminescence intensity of a well expressing the appropriate luciferase construct in the absence of any drug. Curves were fitted, and IC50 values were calculated using GraphPad Prism 8.
WT canine Sec61 was cloned into pcDNA5/FRT/TO (Thermo Fisher Scientific), and point mutations were generated using PCR. All mutants were sequence verified. HEK293 Flp-In T-REx cells (Thermo Fisher Scientific, R78007) were cultured in Dulbecco’s modified Eagle’s medium (Gibco) supplemented with 10% FBS (Gibco) at 37 °C in a humidified 5% CO2 atmosphere. Approximately 0.3 µg of pOG44 and 1 µg of targeting construct plasmids were mixed in 250 µl of OptiMEM (Thermo Fisher Scientific, 51985-026). A total of 3 µl (3 µg) Lipofectamine3000 transfection reagent was then added to the DNA mix and incubated at room temperature for 20 min, and the whole mixture was added to the cells. Cells were exposed to 100 µg ml^−^1 hygromycin B (Invitrogen) and 10 µg ml^−^1 blasticidin for 3–4 weeks until the appearance of resistant colonies. Colonies were expanded into T75 flasks and induced with doxycycline (Sigma-Aldrich, D9891) at a concentration of 1–5 µg ml^−^1 for 48 h. Cells were collected, and total RNA was extracted followed by cDNA amplification and sequencing of Sec61 with gene-specific PCR primers to confirm. Cells were then used for the luciferase reporter assays as above.
(§3) Data are mean values ± SD and are representative of n = 2 independent experiments.

[8] = molecular target: Sec61α N300M (Canis lupus familiaris, UniProt P38377, N300M); test: Luciferase reporter assay in HEK293 cells expressing Sec61α N300M; conditions: HEK293, 24 h, read-out: luciferase reporter activity (% of no-drug control), N300M
Description: as §1, §2
(§4) HEK293 Flp-In T-REx cells (Thermo Fisher Scientific, R78007) were cultured in Dulbecco’s modified Eagle’s medium (Gibco) supplemented with 10% FBS (Gibco) at 37 °C in a humidified 5% CO2 atmosphere. Approximately 0.3 µg of pOG44 and 1 µg of targeting construct plasmids were mixed in 250 µl of OptiMEM (Thermo Fisher Scientific, 51985-026). A total of 3 µl (3 µg) Lipofectamine3000 transfection reagent was then added to the DNA mix and incubated at room temperature for 20 min, and the whole mixture was added to the cells. Cells were exposed to 100 µg ml^−^1 hygromycin B (Invitrogen) and 10 µg ml^−^1 blasticidin for 3–4 weeks until the appearance of resistant colonies. Colonies were expanded into T75 flasks and induced with doxycycline (Sigma-Aldrich, D9891) at a concentration of 1–5 µg ml^−^1 for 48 h. Cells were collected, and total RNA was extracted followed by cDNA amplification and sequencing of Sec61 with gene-specific PCR primers to confirm. Cells were then used for the luciferase reporter assays as above.
as §3

[9] = molecular target: Sec61α S305A (Canis lupus familiaris, UniProt P38377, S305A); test: Luciferase reporter assay in HEK293 cells expressing Sec61α S305A; set-up: remaining activity: dose or concentration left out as unconfirmed; conditions: HEK293, 24 h, read-out: luciferase reporter activity (% of no-drug control), S305A
Description: as §1, §2, §4, §3

[10] = molecular target: Wild Type Sec61α (Canis lupus familiaris, UniProt P38377); test: Luciferase reporter assay in HEK293 Flp-In T-REx cells expressing Wild Type Sec61α; set-up: remaining activity: dose or concentration left out as unconfirmed; conditions: HEK293, 24 h, read-out: luciferase reporter activity (% of no-drug control), Wild Type
Sequence of Wild Type Sec61α (P38377 whole entry): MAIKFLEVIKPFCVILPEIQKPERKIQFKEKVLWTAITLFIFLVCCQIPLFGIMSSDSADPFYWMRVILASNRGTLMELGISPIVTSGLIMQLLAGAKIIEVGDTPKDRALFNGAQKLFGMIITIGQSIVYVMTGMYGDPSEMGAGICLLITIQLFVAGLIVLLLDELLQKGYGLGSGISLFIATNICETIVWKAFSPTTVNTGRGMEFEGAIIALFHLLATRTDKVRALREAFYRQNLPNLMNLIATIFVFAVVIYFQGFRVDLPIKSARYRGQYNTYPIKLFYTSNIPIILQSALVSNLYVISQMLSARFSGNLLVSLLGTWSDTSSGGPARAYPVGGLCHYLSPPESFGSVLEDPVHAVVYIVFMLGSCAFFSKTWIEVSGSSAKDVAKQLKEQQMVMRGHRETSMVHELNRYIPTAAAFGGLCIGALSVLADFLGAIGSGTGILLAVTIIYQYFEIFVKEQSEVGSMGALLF
Sequence of Wild Type Sec61α (P60468 whole entry, further chain): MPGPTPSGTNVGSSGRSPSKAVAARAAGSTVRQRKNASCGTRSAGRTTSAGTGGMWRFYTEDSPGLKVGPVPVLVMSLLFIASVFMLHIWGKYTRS
Sequence of Wild Type Sec61α (P60059 whole entry, further chain): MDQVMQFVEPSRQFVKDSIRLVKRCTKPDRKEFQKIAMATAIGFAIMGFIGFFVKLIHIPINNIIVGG
Description: as §1, §2, §4, §3

Sequence of Sec61α S305A (P38377 whole entry S305A): as the sequence (P38377 whole entry) above, with S305A counted along it
Sequence of Sec61α S305A (P60059 whole entry, further chain): as the sequence (P60059 whole entry, further chain) above
Sequence of Sec61α S305A (P60468 whole entry, further chain): as the sequence (P60468 whole entry, further chain) above
Sequence of Sec61α Q127A (P60059 whole entry): as the sequence (P60059 whole entry, further chain) above
Sequence of Sec61α Q127A (P60468 whole entry, further chain): as the sequence (P60468 whole entry, further chain) above
Sequence of Sec61α Q127A (P38377 whole entry Q127A): as the sequence (P38377 whole entry) above, with Q127A counted along it
Sequence of Sec61α N300M (P38377 whole entry N300M): as the sequence (P38377 whole entry) above, with N300M counted along it
Sequence of Sec61α N300M (P60468 whole entry, further chain): as the sequence (P60468 whole entry, further chain) above
Sequence of Sec61α N300M (P60059 whole entry, further chain): as the sequence (P60059 whole entry, further chain) above

## CC(C)CC1NC(=O)C(Cc2cn(Cc3ccc(Br)cc3)c3ccccc23)N(C)C(=O)C(CC(F)(F)F)NC(=O)C(CC(C)C)N(C)C(=O)C(CC(F)(F)F)NC(=O)C(CCC#N)OC(=O)C(C)N(C)C1=O (stereo not drawn) [KZR-8445] (cyclo([X1]L[NMeA][X2][ξAla(CF3)][NMeL][ξAla(CF3)]); configuration not given here)
[1]; anti-CD3/CD28-stimulation, 24 h, tested 0.025–25,000 nM, read-out: IC50, TNFα secretion
  pIC50: 7.50 and 7.43 and 7.58
[1]; not Sec61-dependent
  secretion of IL-1β: unaffected
[2]; 0.01 uM
  infectious virus particle production: 2000000 TCID50 per milliliter and 1175555 TCID50 per milliliter
[2]; 10 uM
  infectious virus particle production: 928.318 TCID50 per milliliter and 632.456 TCID50 per milliliter
[2]; Vero cells
  CoV-2 replication: blocked
[3]
  effects on cell viability: minimal effects
[4]; 0.025 nM
  cell viability (CTG assay): 106.047 and 100.001
[4]; 0.25 nM
  cell viability (CTG assay): 110.01 and 102.05
[4]; 2.5 nM
  cell viability (CTG assay): 105.776 and 105.957
[4]; 25 nM
  cell viability (CTG assay): 105.176 and 97.9523
[4]; 250 nM
  cell viability (CTG assay): 107.467 and 93.3938
[4]; 2500 nM
  cell viability (CTG assay): 99.7089 and 85.9729
[4]; 25000 nM
  cell viability (CTG assay): 95.1208 and 88.5789
[5]
  virus-induced cytotoxicity: blocked
[6]
  dexamethasone resistance in T-ALL cells: overcome dexamethasone resistance
[7]; Drug nM (log10) 0.18303
  remaining activity at 0.00018303 µM: 76.3%
[7]; Drug nM (log10) 0.660151
  remaining activity at 0.000660151 µM: 76.5%
[7]; Drug nM (log10) 1.13727
  remaining activity at 0.00113727 µM: 51.2%
[7]; Drug nM (log10) 1.61439
  remaining activity: 32.3%
[7]; Drug nM (log10) 2.09151
  remaining activity: 14.7%
[7]; Drug nM (log10) 2.56864
  remaining activity: 6.52%
[7]; Drug nM (log10) 3.04576
  remaining activity: 3.21%
[7]; Drug nM (log10) 3.52288
  remaining activity: 2.56%
[7]; Drug nM (log10) 4
  remaining activity at 0.004 µM: 2.87%
[7]; Drug nM (log10) -0.29409
  remaining activity at 0.000508 µM: 88.9%
[8]; Drug nM (log10) 0.18303
  remaining activity at 0.00018303 µM: 96.7%
[8]; Drug nM (log10) 0.660151
  remaining activity at 0.000660151 µM: 105%
[8]; Drug nM (log10) 1.61439
  remaining activity: 76.6%
[8]; Drug nM (log10) 2.09151
  remaining activity: 74%
[8]; Drug nM (log10) 3.04576
  remaining activity: 68%
[8]; Drug nM (log10) -0.29409
  remaining activity at 0.000508 µM: 92.5%
[9]; Drug nM (log10) 0.18303
  remaining activity at 0.00018303 µM: 82.1%
[9]; Drug nM (log10) 0.660151
  remaining activity at 0.000660151 µM: 68.1%
[9]; Drug nM (log10) 1.13727
  remaining activity at 0.00113727 µM: 47.4%
[9]; Drug nM (log10) 1.61439
  remaining activity: 27.2%
[9]; Drug nM (log10) 2.09151
  remaining activity: 13%
[9]; Drug nM (log10) 2.56864
  remaining activity: 5.54%
[9]; Drug nM (log10) 3.04576
  remaining activity: 3.19%
[9]; Drug nM (log10) 3.52288
  remaining activity: 2.55%
[9]; Drug nM (log10) 4
  remaining activity at 0.004 µM: 3.24%
[9]; Drug nM (log10) -0.29409
  remaining activity at 0.00050805 µM: 89.3%
[10]; Drug nM (log10) 0.18303
  remaining activity at 0.00018303 µM: 85.5%
[10]; Drug nM (log10) 0.660151
  remaining activity at 0.000660151 µM: 69.5%
[10]; Drug nM (log10) 1.13727
  remaining activity at 0.00113727 µM: 51.6%
[10]; Drug nM (log10) 1.61439
  remaining activity: 27.8%
[10]; Drug nM (log10) 2.09151
  remaining activity: 11.4%
[10]; Drug nM (log10) 2.56864
  remaining activity: 4.55%
[10]; Drug nM (log10) 3.04576
  remaining activity: 2.42%
[10]; Drug nM (log10) 3.52288
  remaining activity: 1.93%
[10]; Drug nM (log10) 4
  remaining activity at 0.004 µM: 2.26%
[10]; Drug nM (log10) -0.29409
  remaining activity at 0.00050805 µM: 91.1%
